Source: ChEMBL document CHEMBL1126464, “Carbamate series of juvenoids” (Bioorg Med Chem Lett, 1992)

Experiments:
Acyrthosiphon pisum = experiment: Concentration required for 50% inhibition of acyrthosiphon pisum (ACY) was expressed as percent of active ingredient.; assay type: functional, organism-based
Dysdercus cingulatus = experiment: Effective dose that causes 50 % inhibition of Dysdercus cingulatus (DYS) was determined.; assay type: functional
Galleria mellonella = experiment: Effective dose that causes 50 % inhibition of Galleria mellonella (GAL) was determined.; assay type: functional

Row | IC50 (Acyrthosiphon pisum) | Compound | ED50 (Dysdercus cingulatus) | ED50 (Galleria mellonella)
1 | > 0.1% | CCOC(=O)NCCOc1ccc(C[C@H]2CCCC[C@@H]2O)cc1 | 40 µg/kg | 0.8 µg/kg
2 | > 0.1% | CCOC(=O)NCCOc1ccc(C[C@@H]2CCCC[C@@H]2O)cc1 | 1 µg/kg | 0.8 µg/kg

Further lines, the compound ahead of its results:

Row | Compound | IC50 (Acyrthosiphon pisum) | ED50 (Dysdercus cingulatus) | ED50 (Galleria mellonella)
3 | CCOC(=O)/C=C(C)/C=C/CC(C)CCCC(C)C (stereo not given) [HYDROPRENE] | 0.04% | 1000 µg/kg | 10 µg/kg
4 | CCOC(=O)NCCOc1ccc(CC2CCCCC2=O)cc1 (stereo not given) | 0.05% | 8 µg/kg | 0.2 µg/kg
5 | CCOC(=O)NCCOc1ccc(CC2CCCCC23OCCO3)cc1 (stereo not given) | 0.005% | 80 µg/kg | 0.8 µg/kg
